What was measured:
[1] = tested on: Cholesterol Biosynthesis in HepG2 Cells; test: Inhibition of cholesterol biosynthesis in HepG2 cells (3H2O incorporated into cholesterol); type: cell-based; settings: for IC50: Homo sapiens; for activity as cholesterol biosynthesis inhibitors: HepG2 cells, in words
Method: HepG2 cells are maintained in 175 cm^2 T flasks in Darlington Medium supplemented with 10% fetal bovine serum (FBS). Darlington Medium consists of 3 parts Minimal Essential Medium, 1 part Waymouth's MAB87/3 medium and 3×10^-8 M sodium selenite. This medium is supplemented with 100 U/ml penicillin, 100 ug/ml streptomycin and 2.5 ug/ml Fungizone. In order to establish optimal conditions for the whole cell cholesterol biosynthesis assay, preliminary experiments were performed. 0.25, 0.5, 0.75 or 1×10^6 cells were seeded into 6 well cluster plates in 2 ml of fully supplemented Darlington Medium. The serum supplemented medium was aspirated after 72 hours and replaced with serum free Darlington Medium with antibiotics. After 24, 48 or 72 hours serum free, the cells received either 0.5 or 1 mCi ^3 H2 O/ml medium. This medium was aspirated after 24 hours and the cells were washed twice with phosphate buffered saline. The cells were frozen overnight at -20° C. after which they were harvested from the wells with 1 ml of trypsin-EDTA. Extracted lipids were separated on an HPLC system; cholesterol peaks were collected and counted in a scintillation counter. Results are expressed as the dpm ^3 H2 O incorporated into cholesterol.
In the screening assay the cells received compounds at various concentrations concommitantly with ^3 H2 O. When ethanol was the vehicle, the final ethanol concentration was 0.5%, and control wells with that concentration of ethanol were used in each experiment. Results are expressed as the percent dpm ^3 H2 O incorporated into cholesterol in treated vs control wells. IC50 values are calculated using a linear regression analysis.

human keratinocytes = test: Inhibition of proliferation of cultured human keratinocytes (cell count by Coulter Counter); type: cell-based; settings: Keratinocyte, 168 h, seven days, triplicate, read-out: Percent Inhibition on Keratinocyte Proliferation; for inhibition at 1 µM: 10^-6 M; for inhibition at 0.1 µM: 10^-7 M; for inhibition at 0.01 µM: 10^-8 M; for inhibition at 0.0001 µM: 10^-10 M
Method: Human neonatal foreskins were collected by circumcision and placed into tubes containing DMEM media. Upon arrival at the laboratory the foreskins were mechanically trimmed of excess dermis and treated with a solution of trypsin/EDTA (0.05%/0.02%) at 4° C. overnight. The epidermis was stripped from the dermis, agitated in buffered saline to remove basal keratinocytes and to separate the stratum corneum which was subsequently removed. The separated cells were centrifuged, resuspended in media, counted and the keratinocytes were plated onto a plain plastic culture dish.
The keratinocytes were plated at a density of about 10^5 cells/cm^2in 35 cm^2 dishes. The cells were grown in keratinocyte growth media (KGM®-modified MCDB 153 containing antibiotics by Clonetics of Boulder, Colo.) according to protocols originally developed by Boyce, S. T. and Ham, R. G., J. of Tissue Culture Meth. 9:83-93 (1985). The cells were grown for 5-10 days and changed every 2-3 days with keratinocyte growth media containing 1.5 mM CaCl2 (hereinafter KGM®/1.5 mM CaCl2) until cells reached a 75% confluency by visual observation. All the cultures were incubated in a humidified atmosphere of 5% CO2 at 37° C.
To establish keratinocyte cell cultures as antiproliferative assays, cells prepared as described in the foregoing were washed with PBS and removed from the culture surface with a solution of trypsin/EDTA (0.25%/0.03%). The removed cells were then centrifuged, resuspended in the KGM®/1.5 mM CaCl2 and counted. The cells were then distributed to 6 well plates at 100,000 cells per well as described in the foregoing. […] After 24-48 hours KGM®/1.5 mM CaCl2 which contained test compounds was added to the cells. The cultures maintained for seven days. The media was changed every 2-3 days.
Solutions of the test compounds were prepared as follows: 1 milligram quantities were received in amber glass vials, and stored at -20° C. Sufficient 100% ethanol was added directly to vials to obtain a millimolar solution that was subsequently aliquoted into small amber vials, overlayed with argon gas and stored at -20° C. Each stock solution was thawed once, used and discarded. Aliquots from the stock solutions were diluted directly into medium and then serially diluted from micromolar to 10^-12 M concentrations. Dilutions from 10^-7 M to 10^-12 M had ethanol added for a final concentration of 0.1%. Stock solutions were used within one month. Control cultures were treated with 0.1% ethanol.
For each experiment every culture well received the same number of cells from the same culture source. At the termination of the experiment the number of cells per was determined by the following procedure. Wells were washed twice with PBS and then incubated for approximately 10-20 minutes at 37° C. with a trypsin/EDTA solution (0.25%/03%). PBS plus 0.1% soybean trypsin inhibitor was added and the cells were suspended. An aliquot of the cells was placed into isotonic buffered saline and counted on an electronic particle counter (e.g. Coulter Counter® device by Coulter Electronics of Hialeah, Fla.).
Quantification of proliferation was done by enumerating the number of keratinocyte cells in each well using the Coulter Counter®. Results shown in Table 1 below show the percent reduction of keratinocyte cell number calculated for each of 4 concentrations of test compounds tested according to the formula: [formula]
For statistical analysis, the mean was calculated for all wells in each treatment group. Standard error was determined by nonbiased analysis using a value for the number of wells in each group, preferably N=3.
Each compound was tested in triplicate. The control (ETOH), as noted above, was 0.1% ethanol.

| Structure (SMILES) | IC50 ([1]; HepG2, Test I) | IC50 ([1]; HepG2, Test II) | IC50 ([1]; HepG2, Test III) | IC50 ([1]; HepG2, Test IV) | activity as cholesterol biosynthesis inhibitors [1] | inhibition at 1 µM (human keratinocytes) | inhibition at 0.1 µM (human keratinocytes) | inhibition at 0.01 µM (human keratinocytes) | inhibition at 0.0001 µM (human keratinocytes) |
| --- | --- | --- | --- | --- | --- | --- | --- | --- | --- |
| CC[C@H](C)C(=O)O[C@H]1C[C@@H](C)C=C2C=C[C@H](C)[C@H](CC[C@@H]3C[C@@H](O)CC(=O)O3)[C@H]21 [mevinolin, reference compound] | 0.02 µM | 0.1 µM | 0.076 µM | 0.008 µM |  |  |  |  |  |
| C[C@H]1C=C2C=C[C@H](C)[C@H](CC[C@@H]3C[C@@H](O)CC(=O)O3)[C@H]2[C@@H](OC(=O)C(C)(C)Oc2ccc(Cl)cc2)C1 [A, 2-(4-chlorophenoxy)-2-methylpropionic acid [1S-[1α,3α,7β,8β(2R*, 4R*),8aβ]]-1,2,3,7,8,8a-hexahydro-3,7-dimethyl-8-[2-[tetrahydro-4-hydroxy-6-oxo-2H-pyran-2-yl]ethyl]-1-naphthalenyl ester] | 0.03 µM | 0.5 µM | 0.101 µM |  | show activity as cholesterol biosynthesis inhibitors | 49.7% | 15.2% | 6.28% | 20.9% |
| C[C@H]1C=C2C=C[C@H](C)[C@H](CC[C@@H]3C[C@@H](O)CC(=O)O3)[C@H]2[C@@H](OC(=O)C(C)(C)C(C)(F)F)C1 [Compound B, 3,3-difluoro-2,2-dimethylbutanoic acid, [1S-[1α,3α,7β,8β(2R*,4R*)8aβ]]-8-[2-[tetrahydro-4-hydroxy-6-oxo-2H-pyran-2-yl]ethyl]-1,2,3,7,8,8a-hexahydro-3,7-dimethyl-1-naphthalenyl ester] |  |  |  | 0.005 µM | show activity as cholesterol biosynthesis inhibitors | 95.8% | 31.2% | 14.6% | 18% |

Reference: patent publication US5200549A, “Antipsoriatic agents” (Hoffman-La Roche Inc., priority 1991, dated 1993)
